Test results from ChEMBL document CHEMBL1201862, “PubChem BioAssay data set” (2004).
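96-well plates; 48 h exposure; 5 concentrations. Endpoints by linear interpolation between flanking doses. Not reached: highest tested concentration assigned. GI50: concentration for 50% inhibition of growth.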 Activity calls are given as the source filed them. No stated cut-off is given here; in the data, active = GI50 up to about 1.1 µM and inactive = higher.

Columns and labels:
Test in all cases: NCI-60 cell line screen, 48 h
MDA-MB-435 = tested on: MDA-MB-435
UACC-62 = tested on: UACC-62
MDA-MB-231 = tested on: MDA-MB-231
Malme-3M = tested on: Malme-3M
NCI-H522 = tested on: NCI-H522
MDA-N = tested on: MDA-N
PC-3 = tested on: PC-3
SK-MEL-28 = tested on: SK-MEL-28
ACHN = tested on: ACHN
KM12 = tested on: KM12
CAKI-1 = tested on: CAKI-1
HOP-62 = tested on: HOP-62
SW-620 = tested on: SW-620
MCF7 = tested on: MCF7
SK-MEL-2 = tested on: SK-MEL-2
BT-549 = tested on: BT-549
COLO 205 = tested on: COLO 205
DU-145 = tested on: DU-145
OVCAR-8 = tested on: OVCAR-8
UACC-257 = tested on: UACC-257

Structure (SMILES)	GI50 (MDA-MB-435)	GI50 (UACC-62)	GI50 (MDA-MB-231)	GI50 (Malme-3M)	GI50 (NCI-H522)	GI50 (MDA-N)	GI50 (PC-3)	GI50 (SK-MEL-28)	GI50 (ACHN)	GI50 (KM12)	GI50 (CAKI-1)	GI50 (HOP-62)	GI50 (SW-620)	GI50 (MCF7)	GI50 (SK-MEL-2)	GI50 (BT-549)	GI50 (COLO 205)	GI50 (DU-145)	GI50 (OVCAR-8)	GI50 (UACC-257)
O=P1(C(O)/C=C/c2ccccc2)N(Cc2ccccc2)[C@@H]2CCCC[C@H]2N1Cc1ccccc1 (stereo partly specified)	3.67 µM (inactive)	6.98 µM (inactive)	10.8 µM (inactive)	2.98 µM (inactive)	2.42 µM (inactive)	4.62 µM (inactive)	3.14 µM (inactive)	11.2 µM (inactive)	3.94 µM (inactive)	4.66 µM (inactive)	13.1 µM (inactive)	11.1 µM (inactive)	6.87 µM (inactive)	3.24 µM (inactive)	2.62 µM (inactive)	15 µM (inactive)	2.42 µM (inactive)	12.9 µM (inactive)	3.74 µM (inactive)	4.32 µM (inactive)
CC(Br)C(=O)NC(CO)C(=O)O (stereo unspecified)	> 100 µM (inactive)	> 100 µM (inactive)	> 100 µM (inactive)	> 100 µM (inactive)	> 100 µM (inactive)	> 100 µM (inactive)	> 100 µM (inactive)	> 100 µM (inactive)	> 100 µM (inactive)	> 100 µM (inactive)	> 100 µM (inactive)	> 100 µM (inactive)	> 100 µM (inactive)	> 100 µM (inactive)	> 100 µM (inactive)	> 100 µM (inactive)	> 100 µM (inactive)	> 100 µM (inactive)	> 100 µM (inactive)	> 100 µM (inactive)
CC1=C2c3c(C)ccc4ccc(C)c(c34)C2(O)C(C)C1=O (stereo unspecified)	52.1 µM (inactive)	35.8 µM (inactive)	89.1 µM (inactive)		47.2 µM (inactive)	54.1 µM (inactive)	32.7 µM (inactive)	84.3 µM (inactive)	73.6 µM (inactive)	41.3 µM (inactive)	52.1 µM (inactive)	79.1 µM (inactive)	> 100 µM (inactive)	68.5 µM (inactive)	> 100 µM (inactive)	21 µM (inactive)	28.8 µM (inactive)	> 100 µM (inactive)	19.4 µM (inactive)	53.8 µM (inactive)
O=C(O)c1cccc(CN2CCCCC2)c1	> 100 µM (inactive)	> 100 µM (inactive)	> 100 µM (inactive)	> 100 µM (inactive)	> 100 µM (inactive)	> 100 µM (inactive)	> 100 µM (inactive)	> 100 µM (inactive)	> 100 µM (inactive)	> 100 µM (inactive)	> 100 µM (inactive)	> 100 µM (inactive)	> 100 µM (inactive)	> 100 µM (inactive)	> 100 µM (inactive)	> 100 µM (inactive)	> 100 µM (inactive)	> 100 µM (inactive)	> 100 µM (inactive)	> 100 µM (inactive)
Cc1cccc(/C=N/NC(=S)N(C)CCc2ccccn2)n1	0.521 µM (active)	0.287 µM (active)	1.16 µM (inactive)	0.361 µM (active)	0.214 µM (active)	0.473 µM (active)	0.288 µM (active)	0.501 µM (active)	0.191 µM (active)	0.687 µM (active)	0.421 µM (active)	0.32 µM (active)	0.361 µM (active)	0.42 µM (active)	0.661 µM (active)	0.857 µM (active)	0.183 µM (active)	0.236 µM (active)	0.336 µM (active)	0.448 µM (active)
CC(C)N1CCN(c2ccncc2S(=O)(=O)N2CCCCC2)CC1	> 100 µM (inactive)	> 100 µM (inactive)	> 100 µM (inactive)	> 100 µM (inactive)	> 100 µM (inactive)	> 100 µM (inactive)	> 100 µM (inactive)	> 100 µM (inactive)	> 100 µM (inactive)	> 100 µM (inactive)	> 100 µM (inactive)	> 100 µM (inactive)	> 100 µM (inactive)	> 100 µM (inactive)	> 100 µM (inactive)	> 100 µM (inactive)	> 100 µM (inactive)	> 100 µM (inactive)	> 100 µM (inactive)	> 100 µM (inactive)
Nc1ccn(C2OC(COC(=O)C34CC5CC(CC(C5)C3)C4)C(O)C2O)c(=O)n1 (stereo unspecified)	> 100 µM (inactive)	> 100 µM (inactive)	> 100 µM (inactive)	> 100 µM (inactive)	10.7 µM (inactive)	> 100 µM (inactive)	> 100 µM (inactive)	52.4 µM (inactive)	1.77 µM (inactive)	> 100 µM (inactive)	> 100 µM (inactive)	0.973 µM (active)	> 100 µM (inactive)	4.81 µM (inactive)	> 100 µM (inactive)	> 100 µM (inactive)	59 µM (inactive)	> 100 µM (inactive)	24.2 µM (inactive)	> 100 µM (inactive)
COc1c(C(=O)CC2c3c(cc4oc(C)cc(=O)c4c3OC)OC(=N)C2c2nc3ccccc3[nH]2)c(O)c(OC)c2occc12 (stereo unspecified)	> 100 µM (inactive)	> 100 µM (inactive)	> 100 µM (inactive)	> 100 µM (inactive)	> 100 µM (inactive)	> 100 µM (inactive)	> 100 µM (inactive)	> 100 µM (inactive)	> 100 µM (inactive)	> 100 µM (inactive)	> 100 µM (inactive)	> 100 µM (inactive)	> 100 µM (inactive)	> 100 µM (inactive)	> 100 µM (inactive)	> 100 µM (inactive)	> 100 µM (inactive)	> 100 µM (inactive)	> 100 µM (inactive)	> 100 µM (inactive)
CCN(CC)CCO/N=C1\CC[C@H]2[C@@H]3CC=C4C[C@@H](O)CC[C@]4(C)[C@H]3CC[C@]12C	17.3 µM (inactive)	16.9 µM (inactive)	19.7 µM (inactive)	16.1 µM (inactive)	17.3 µM (inactive)	23 µM (inactive)	19 µM (inactive)	15.7 µM (inactive)	35.8 µM (inactive)	17.8 µM (inactive)	14.5 µM (inactive)	17.6 µM (inactive)	15.1 µM (inactive)	16.6 µM (inactive)	23.3 µM (inactive)	16.8 µM (inactive)	12.8 µM (inactive)	18.9 µM (inactive)	21.5 µM (inactive)	16.7 µM (inactive)
CCOC(=O)/C=C(/C(=O)OCC)n1ccc(=O)n(CC(=O)OCC)c1=O	1.64 µM (inactive)	1.64 µM (inactive)	2.04 µM (inactive)	0.668 µM (active)	0.196 µM (active)	2.44 µM (inactive)	1.67 µM (inactive)	1.68 µM (inactive)	0.57 µM (active)	2.57 µM (inactive)	0.146 µM (active)	17.2 µM (inactive)	0.265 µM (active)	0.471 µM (active)	4.65 µM (inactive)	2.08 µM (inactive)	0.284 µM (active)	5.01 µM (inactive)	2.39 µM (inactive)	2.44 µM (inactive)
O=C(NO)c1cccc(OCc2ccc(Br)cc2)c1	5.73 µM (inactive)	4.15 µM (inactive)	12.3 µM (inactive)	2.37 µM (inactive)	1.41 µM (inactive)	9.02 µM (inactive)	5.89 µM (inactive)	14.2 µM (inactive)	3.03 µM (inactive)	5.4 µM (inactive)	3.11 µM (inactive)	4.97 µM (inactive)	6.55 µM (inactive)	2.45 µM (inactive)	11.3 µM (inactive)	7.71 µM (inactive)	8.11 µM (inactive)	3.13 µM (inactive)	1.32 µM (inactive)	10.5 µM (inactive)
CC1/C(=N/O)CC(c2ccccc2)N(N=O)C1c1ccccc1 (stereo unspecified)	> 100 µM (inactive)	> 100 µM (inactive)	> 100 µM (inactive)	> 100 µM (inactive)	> 100 µM (inactive)	> 100 µM (inactive)	> 100 µM (inactive)	> 100 µM (inactive)	> 100 µM (inactive)	> 100 µM (inactive)	> 100 µM (inactive)	> 100 µM (inactive)	> 100 µM (inactive)	> 100 µM (inactive)	> 100 µM (inactive)	> 100 µM (inactive)	> 100 µM (inactive)	> 100 µM (inactive)	> 100 µM (inactive)	> 100 µM (inactive)
[N-]=[N+]=CC(=O)OCCCCl	> 100 µM (inactive)	> 100 µM (inactive)	> 100 µM (inactive)	> 100 µM (inactive)	> 100 µM (inactive)	> 100 µM (inactive)	> 100 µM (inactive)	> 100 µM (inactive)	> 100 µM (inactive)	> 100 µM (inactive)	> 100 µM (inactive)	> 100 µM (inactive)	> 100 µM (inactive)	> 100 µM (inactive)	> 100 µM (inactive)	> 100 µM (inactive)	> 100 µM (inactive)	> 100 µM (inactive)		> 100 µM (inactive)
CN(Cc1ccccc1)c1cc(=O)n(C)c(=O)[nH]1	> 100 µM (inactive)	> 100 µM (inactive)	> 100 µM (inactive)	> 100 µM (inactive)	> 100 µM (inactive)	> 100 µM (inactive)	> 100 µM (inactive)	> 100 µM (inactive)	> 100 µM (inactive)		> 100 µM (inactive)		> 100 µM (inactive)	> 100 µM (inactive)	> 100 µM (inactive)	> 100 µM (inactive)	> 100 µM (inactive)	> 100 µM (inactive)	> 100 µM (inactive)	> 100 µM (inactive)
